Results: paper PMC3233689 (The Journal of neuroscience : the official journal of the …, 2011)

Tests used:
RDL receptor (WT) = biological target: T1, RDL receptor (WT) (Drosophila melanogaster, UniProt P25123); experiment: GABA-induced currents, voltage clamp of Xenopus oocytes expressing wild type RDL; type: cell-based; conditions: Hill coefficient, mean ± SEM
T1 sequence (P25123 45-606): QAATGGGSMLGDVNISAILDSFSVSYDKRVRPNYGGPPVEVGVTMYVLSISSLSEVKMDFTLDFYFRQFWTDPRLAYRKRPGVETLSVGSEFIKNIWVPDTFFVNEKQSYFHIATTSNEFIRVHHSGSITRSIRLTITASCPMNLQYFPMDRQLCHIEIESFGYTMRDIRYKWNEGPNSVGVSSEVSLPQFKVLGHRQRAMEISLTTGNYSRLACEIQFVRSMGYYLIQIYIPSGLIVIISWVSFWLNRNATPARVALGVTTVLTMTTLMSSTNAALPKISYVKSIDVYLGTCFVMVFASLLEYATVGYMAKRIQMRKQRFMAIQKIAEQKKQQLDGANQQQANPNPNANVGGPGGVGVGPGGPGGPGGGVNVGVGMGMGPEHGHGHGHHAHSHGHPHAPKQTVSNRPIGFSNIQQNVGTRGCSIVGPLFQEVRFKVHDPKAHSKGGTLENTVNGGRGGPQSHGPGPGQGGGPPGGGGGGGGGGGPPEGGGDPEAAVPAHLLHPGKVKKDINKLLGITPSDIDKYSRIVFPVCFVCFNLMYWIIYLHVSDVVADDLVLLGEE

RDL receptor F206A = RDL receptor F206A (Drosophila melanogaster, UniProt P25123, F206A); experiment: GABA-induced currents in oocytes, RDL F206A; type: cell-based; conditions: Phe206 substituted with Ala, compared to WT
RDL receptor F206Y = RDL receptor F206Y (Drosophila melanogaster, UniProt P25123, F206Y); experiment: GABA-induced currents in oocytes, RDL F206Y; type: cell-based
RDL receptor Y254A = RDL receptor Y254A (Drosophila melanogaster, UniProt P25123, Y254A); experiment: GABA-induced currents in oocytes, RDL Y254A; type: cell-based; conditions: Tyr254Ala receptors, GABA up to 100 mM
RDL receptor Y254F = RDL receptor Y254F (Drosophila melanogaster, UniProt P25123, Y254F); experiment: GABA-induced currents in oocytes, RDL Y254F; type: cell-based
RDL receptor F206Y/Y254F = RDL receptor F206Y/Y254F (Drosophila melanogaster, UniProt P25123, F206Y/Y254F); experiment: GABA-induced currents in oocytes, RDL F206Y/Y254F; type: cell-based; conditions: Hill coefficient
RDL receptor F146A = RDL receptor F146A (Drosophila melanogaster, UniProt P25123, F146A); experiment: GABA-induced currents in oocytes, RDL F146A; type: cell-based
[1] = tested on: RDL mutant (TAG) mRNA without aminoacylated tRNA; type: cell-based, Drosophila; conditions: 5 mM GABA; mutant mRNA alone or with tRNA-dCA with no amino acid attached
RDL receptor F206-FPhe = conditions: Hill coefficient, GABA
RDL receptor F206-F2Phe = conditions: Hill coefficient, GABA
RDL receptor F206-F3Phe = conditions: Hill coefficient, GABA
RDL receptor Y254-FPhe = conditions: Hill coefficient, GABA
RDL receptor Y254F2-Phe = conditions: Hill coefficient, GABA
RDL receptor Y254F3-Phe = conditions: Hill coefficient, GABA
RDL receptor F146F3Phe = conditions: Hill coefficient, GABA
GABAA receptor = conditions: GABA-activated GABAA receptor; ref Padgett et al., 2007; cited from earlier work
GABAC receptor = conditions: GABA-activated GABAC receptor; ref Lummis et al., 2005; cited from earlier work
RDL receptor = conditions: homomers in Xenopus oocytes; ref Zhang et al., 1994; cited from earlier work

Sequence of RDL receptor F206Y (P25123 45-606 F206Y): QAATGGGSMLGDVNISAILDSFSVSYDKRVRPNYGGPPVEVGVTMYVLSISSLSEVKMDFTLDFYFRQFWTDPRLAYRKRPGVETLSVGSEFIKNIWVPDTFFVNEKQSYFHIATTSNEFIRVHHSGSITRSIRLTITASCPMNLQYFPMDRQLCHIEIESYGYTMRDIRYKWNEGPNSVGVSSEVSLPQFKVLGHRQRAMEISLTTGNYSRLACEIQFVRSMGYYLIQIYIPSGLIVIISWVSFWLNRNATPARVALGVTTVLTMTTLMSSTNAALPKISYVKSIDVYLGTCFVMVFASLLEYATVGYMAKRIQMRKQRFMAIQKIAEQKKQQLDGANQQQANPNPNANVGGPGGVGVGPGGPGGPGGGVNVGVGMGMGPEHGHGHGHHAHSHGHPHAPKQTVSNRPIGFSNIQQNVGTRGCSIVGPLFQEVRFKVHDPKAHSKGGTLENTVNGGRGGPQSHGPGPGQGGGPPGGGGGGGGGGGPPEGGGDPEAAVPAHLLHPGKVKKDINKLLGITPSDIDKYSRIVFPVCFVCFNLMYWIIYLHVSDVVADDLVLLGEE
Sequence of RDL receptor Y254F (P25123 45-606 Y254F): as the sequence (P25123 45-606 F206Y) above, with Y162F, Y210F counted along it
Sequence of RDL receptor F146A (P25123 45-606 F146A): as the sequence (P25123 45-606 F206Y) above, with F102A, Y162F counted along it
Sequence of RDL receptor Y254A (P25123 45-606 Y254A): as the sequence (P25123 45-606 F206Y) above, with Y162F, Y210A counted along it
Sequence of RDL receptor F206A (P25123 45-606 F206A): as the sequence (P25123 45-606 F206Y) above, with Y162A counted along it
Sequence of RDL receptor F206Y/Y254F (P25123 45-606 F206Y/Y254F): as the sequence (P25123 45-606 F206Y) above, with Y210F counted along it

For `NCCCC(=O)O` [GABA], the nH (RDL receptor (WT)) was 1.4 ± 0.2, the “increase in EC50” value (RDL receptor F206A) was roughly 50 fold and the nH (RDL receptor F206Y; Hill coefficient, F206Y) was 2.2 ± 0.3. The “decrease in EC50 compared to WT” value (RDL receptor F206Y; Phe206Tyr) was roughly 200 fold, the “response to GABA” value (RDL receptor Y254A) was “did not respond” and the nH (RDL receptor Y254F; Hill coefficient, Y254F) was 2.1 ± 0.4. For the same molecule, the “increase in EC50” value (RDL receptor Y254F; Tyr254 substituted with Phe, compared to WT) was roughly 4 fold, the nH (RDL receptor F206Y/Y254F) was 1.9 ± 0.5 and the nH (RDL receptor F146A; Hill coefficient, GABA, F146A) was 2.1 ± 0.2. For the same molecule, the “increase in GABA EC50” value (RDL receptor F146A; Phe146 substituted with Ala, compared to WT) was less than 4 fold, the “currents in response to GABA” value [1] was “No currents” and the nH (RDL receptor F206-FPhe) was 1.8 ± 0.3. The nH (RDL receptor F206-F2Phe) was 1.8 ± 0.3, the nH (RDL receptor F206-F3Phe) was 2.0 ± 0.4 and the nH (RDL receptor Y254-FPhe) was 1.3 ± 0.4. For the same molecule, the nH (RDL receptor Y254F2-Phe) was 1.1 ± 0.2, the nH (RDL receptor Y254F3-Phe) was 1.2 ± 0.3 and the nH (RDL receptor F146F3Phe) was 1.4 ± 0.4. For the same molecule, the “slope of fluorination plot” value (GABAA receptor) was 0.29 and the “slope of fluorination plot” value (GABAC receptor) was 0.21.
For picrotoxin, the “inhibition of RDL receptors” value (RDL receptor) is listed as “inhibited”.
